The melting point is the temperature, or range, at which the solid turns liquid.

Consider `CN1CCC(C2Cc3ccccc3C(=O)N2)CC1` (centres unmarked) [Example 158, 3-(1-methylpiperidin-4-yl)-3,4-dihydro-2H-isoquinolin-1-one], for which the melting point fell in the range of 139 to 141 °C.

As for `Cc1ccc(-c2c(C3CCN(C)CC3)[nH]c(=O)c3ccccc23)cc1` [Example 163, 4-(4-methylphenyl)-3-(1-methylpiperidin-4-yl)-2H-isoquinolin-1-one], the melting point was 244 to 246 °C.

Turning to `CN1CCC(c2[nH]c(=O)c3ccccc3c2-c2ccc(F)cc2)CC1` [Example 164, 4-(4-fluorophenyl)-3-(1-methylpiperidin-4-yl)-2H-isoquinolin-1-one], the melting point is 269 to 271 °C.

On to `COc1ccccc1-c1c(C2CCN(C)CC2)[nH]c(=O)c2ccccc12` [Example 167, 4-(2-methoxyphenyl)-3-(1-methylpiperidin-4-yl)-2H-isoquinolin-1-one], for which the melting point was 153 to 155 °C.

As to `Cc1cccc(-c2c(C3CCN(C)CC3)[nH]c(=O)c3ccccc23)c1` [Example 168, 4-(3-methylphenyl)-3-(1-methylpiperidin-4-yl)-2H-isoquinolin-1-one], the melting point was 214 to 216 °C.

`Cc1ccccc1-c1c(C2CCN(C)CC2)[nH]c(=O)c2ccccc12` [Example 169, 4-(2-methylphenyl)-3-(1-methylpiperidin-4-yl)-2H-isoquinolin-1-one]: the melting point was 249 to 251 °C.

As to `COc1cccc(-c2c(C3CCN(C)CC3)[nH]c(=O)c3ccccc23)c1` [Example 170, 4-(3-methoxyphenyl)-3-(1-methylpiperidin-4-yl)-2H-isoquinolin-1-one], the melting point fell in the range of 181 to 183 °C.

Consider `COCOc1cccc2c(=O)[nH]c(C3CCN(C)CC3)cc12` [Example 171, 5-methoxymethyloxy-3-(1-methylpiperidin-4-yl)-2H-isoquinolin-1-one], for which the melting point lay in the range of 194 to 196 °C.

`CN1CCC(c2cc3c(N(C)C)cccc3c(=O)[nH]2)CC1` [Example 180, 5-(dimethylamino)-3-(1-methylpiperidin-4-yl)-2H-isoquinolin-1-one] had a melting point of 216 to 218 °C.

Regarding `CN1CCC(c2[nH]c(=O)c3ccccc3c2-c2ccccc2F)CC1` [Example 182, 4-(2-fluorophenyl)-3-(1-methylpiperidin-4-yl)-2H-isoquinolin-1-one], the melting point fell in the range of 247 to 249 °C.

`COCOc1cccc2c(=O)[nH]c(CCCN(C)C)cc12` [Example 185, 5-methoxymethyloxy-3-(3-dimethylaminopropyl)-2H-isoquinolin-1-one] came in with a melting point of 110 to 112 °C.

Take `COCOc1cccc2c(=O)[nH]c(CCCCN(C)C)cc12` [Example 187, 5-methoxymethyloxy-3-(4-dimethylaminobutyl)-2H-isoquinolin-1-one]: the melting point was 109 to 111 °C.

In turn, `O=c1[nH]c(C2CCCN(Cc3ccccc3)C2)cc2ccccc12` (centres unmarked) [Example 191, 3-(1-benzylpiperidin-3-yl)-2H-isoquinolin-1-one] came in with a melting point of 176 to 178 °C.

In turn, `CN1CCC=C(c2cc3ccccc3c(=O)[nH]2)C1` [Example 193, 3-(1-methyl-1,2,3,6-tetrahydropyridin-5-yl)-2H-isoquinolin-1-one] registered a melting point of 214 to 216 °C.

Take `O=c1[nH]c(N2CCNC(CO)C2)cc2ccccc12` (centres unmarked) [Example 194, 3-(3-hydroxymethylpiperazin-1-yl)-2H-isoquinolin-1-one]: the melting point is > 120 °C (dec.).

In turn, `CCCN1CCN(c2cc3ccccc3c(=O)[nH]2)CC1CO` (centres unmarked) [Example 196, 3-(3-hydroxymethyl-4-propylpiperazin-1-yl)-2H-isoquinolin-1-one] registered a melting point of 152 to 154 °C.

In turn, `O=c1[nH]c(N2CCN(Cc3ccccc3)C(CO)C2)cc2ccccc12` (centres unmarked) [Example 197, 3-(4-benzyl-3-hydroxymethylpiperazin-1-yl)-2H-isoquinolin-1-one] returned a melting point of 176 to 177 °C.

These data come from patent US20040176361A1, “Fused heterocyclic compound and medicinal use thereof” (priority 2001, published 2004).
